{"source": "patent US5998596A", "about": "“Inhibition of protein kinase activity by aptameric action of oligonucleotides” (The United States of America as represented by the …)", "key": {"p145^abl kinase": {"system": "p145^abl kinase", "test": "Immunoprecipitation kinase assay of p145abl", "format": "biochemical", "description": "(§1) The p210^bcr-abl kinase, src kinase and cdc-2 kinase were immunoprecipitated from K562 cells. The p145^abl kinase was immunoprecipitated from PC3M cells, PDGF receptor kinase from 3T3 cells, and EGF receptor kinase from A431 cells. MAP kinase was utilized as a pure protein and lck kinase was immunoprecipitated from peripheral blood lymphocytes of a normal volunteer.\nCells were washed in phosphate buffered saline (PBS) and 0.5-5×10^6 cells were solubilized in 1 ml of the specified cell lysis buffers. Unless otherwise stated, all cell lysis buffers contained the following protease inhibitors: 20 μg/ml leupeptin, 1 μg/ml aprotinin, and 1 mM phenylmethylsulfonylfluroide. For p210^bcr-abl and […] immunoprecipitation, cells were lysed with ABL lysis buffer (25 mM imidazole, pH 7.2, 0.5% NP40, 50 mM NaCl, 1 mM Na3 VO4) and lysates were clarified at 14,000 g. 4° C. for 30 minutes. Cell lysis for all other proteins was performed according to the references describing the various immunoprecipitation kinase assays.\nImmunoprecipitation kinase assays of p210^bcr-abl p145^abl were performed as described, with modifications (15). Briefly, for p210^bcr-abl, 1 μg of anti-bcr antibody (clone 7C6, Oncogene Science, Uniondale, N.Y.) was added to lysates prepared from 0.5-1×10^6 K562 cells. […]"}, "[1]": {"system": "Platelet derived growth factor receptor (PDGFR)", "test": "PDGFR autophosphorylation immune complex kinase assay", "format": "biochemical", "text": "as §1\n(§2) Epidermal growth factor receptor (EGFR) was immunoprecipitated with 10 ,g anti-EGFR antibody (clone LA1) and human recombinant epidermal growth factor (both from Upstate Biotechnology Inc., Lake Placid, N.Y.). The assay was performed as described (17) but without removing the EGFR from the protein A-antibody solid support. Instead, epidermal growth factor, at a final concentration of 100 nM, was added to the kinase reaction mixture. Platelet derived growth factor receptor (DGFR) was immunoprecipitated with anti-human type A/type B PDGFR antibody (Upstate Biotechnology Inc.) and immune complex kinase assays performed as referenced (18) except that protein A-Sepharose coated with rabbit anti-mouse immunoglobulin was used instead of formalin-fixed Staphylococcus aureus to bind PDGFR-antibody conjugates. C-src was immunoprecipitated with anti-v-src antibody (Ab-1; Oncogene Science) and assayed as previously described (19) with the addition of enolase as exogenous substrate. […]"}, "cdc-2 kinase": {"system": "cdc-2 kinase", "test": "cdc-2 kinase assay with dephosphorylated casein", "format": "biochemical, human", "conditions": "Cerenkov counting of excised gel slices", "text": "as §1, §2"}, "MAP kinase": {"system": "MAP kinase", "test": "MAP kinase assay with purified enzyme", "format": "biochemical", "conditions": "Cerenkov counting of excised gel slices", "text": "as §1, §2"}, "[2]": {"system": "cellular phosphotyrosine content of K562 cells", "test": "Western analysis of total cellular phosphotyrosine content after electroporation of K562 cells", "format": "cell-based, human", "conditions": "K562 cells electroporated with 100 μM ODN, one hour later", "description": "One hundred micrograms of protein from cell lysates were separated on a 7% SDS polyacrylamide gel. Transfer was performed overnight at 50 volts, 4° C., in a 0.2 M glycine, 25 mM Tris, pH 8.3, 0.15% SDS, 20% methanol buffer, onto […] nitrocellulose (Schleicher and Schuell Inc.). For cellular phosphotyrosine blots, Western probing was performed as described previously, with modifications (SARTOR, et al, 1991). Briefly, membranes were blocked for 2 hours with 5% albumin in TTBS (20 mM Tris HCL, pH 7.6; 0.05% Tween 20; 0.9% sodium chloride), probed for 1 hour with antiphosphotyrosine antibody (Upstate Biotechnology Inc., Lake Placid, N.Y.) diluted 1:500 in TTBS, followed by rabbit anti-mouse antibody (Cappel Research Products) and then [^125 I] protein A Sepharose (Amersham Corp., Arlington Heights, Ill.). Membranes were exposed to Kodak X-OMAT AR film overnight at -70° C. with intensifying screens.\n(§3) Electroporation was performed as described (40). Briefly, 1-5×10^6 cells in 1 ml of RPMI 1640 with 10% fetal calf serum were placed into 0.4 cm gap electroporation chambers and electroporated with a Cell-Porator Electroporation System 1 (all from GIBCO BRL, Grand Island, N.Y.) at 800 microfarrads, 300 volts, at room temperature. Cells were then incubated at 37° C. for 1 hour before manipulation.\nIn K562 cells p210^bcr-abl is a major kinase responsible for protein tyrosine phosphorylation (38, 39). Changes in enzyme activity are therefore reflected by changes in cellular phosphotyrosine content."}, "[3]": {"system": "p210^bcr-abl protein level in K562 cells", "test": "Western analysis of p210bcr-abl protein level in ODN treated K562 cells", "format": "cell-based, human", "conditions": "one hour after electroporation with 100 μM ODN", "description": "For p210^bcr-abl Western analysis, probing was carried out with the ECL Western blotting kit (Amersham) according to manufacturer's instructions. Briefly, membranes were blocked in 5% non-fat dry milk in TTBS for 1 hour, incubated with anti-p210^bcr-abl antibody (clone 8E9, Pharmingen, San Diego, Calif.) diluted 1:500 in TTBS for 1 hour, with sheep anti-mouse horseradish peroxidase-linked antibody (diluted 1:1000) for 1 hour, and lastly incubated in a luminol based detection solution for 1 minute. Membranes were exposed to Kodak X-OMAT AR film for various time periods.\nas §3"}, "[4]": {"conditions": "Cerenkov counting of excised gel slices, mean ± SD"}}, "note": "Entries after “also recorded” stand apart in the source; their conditions may differ."}
{"substance": "5'-GTCCACCATGGCGCGGCCGGC-3' [ODN1] (phosphorothioate caps, further chemistry not given here) [21mer ODN complementary to nucleotides -12 to +9 of the p210bcr-abl mRNA, phosphorothioate capped unless otherwise specified]", "values": [{"measurement": "sensitivity of p145^abl compared with p210^bcr-abl", "setting": "p145^abl kinase", "result": "equally sensitive"}, {"measurement": "IC50", "setting": "p145^abl kinase; [4]", "result": "0.62 ± 0.24", "unit": "µM"}, {"measurement": "sensitivity of PDGF receptor relative to p145^abl or p210^bcr-abl", "setting": "[1]", "result": "almost a log less sensitive"}, {"measurement": "IC50", "setting": "[1]; [4]", "result": "4.4 ± 2.3", "unit": "µM"}, {"measurement": "IC50", "setting": "cdc-2 kinase", "result": "> 50", "unit": "µM"}, {"measurement": "IC50", "setting": "MAP kinase", "result": "> 100", "unit": "µM"}, {"measurement": "total cellular protein phosphotyrosine content", "setting": "[2]; listed as BCR-AS", "result": "dropped significantly; also recorded: reduced protein phosphotyrosine content"}, {"measurement": "total cellular protein phosphotyrosine content", "setting": "[2]; listed as BCR-AS phosphorothioate capped", "result": "equally effective"}, {"measurement": "p210^bcr-abl protein level", "setting": "[3]", "result": "no decrement"}]}
